Measurements reported in patent US20250351829A1, “HERBICIDAL COMBINATIONS AND A METHOD FOR CONTROLLING UNDESIRED VEGETATION” (UPL Mauritius Limited, priority 2022, published 2025).

System: Bidens pilosa
Experiment: Post-emergence herbicidal activity, weed control efficacy trials
Type: in vivo
Conditions: 7 DAA
Protocol: Methodology: Trials were conducted to evaluate the efficacy of the combinations comprising L-glufosinate ammonium and additional herbicides on Bidens pilosa weed.
The soil used was sandy clay loam-sand: 68.0%; silt: 8.0%; clay: 24.0%.
All treatments were in 3 replications per treatment with a spray volume of about 150 L/ha.
Efficacy Evaluation: The expected efficacy of the combination comprising L-glufosinate ammonium and additional herbicides was calculated using the well-established Colby method.
In the Colby method, the expected (or predicted) response of a combination of herbicides is calculated by taking the product of the observed response for each individual component of the combination when applied alone, divided by 100, and subtracting this value from the sum of the observed response for each component when applied alone. An unexpected enhancement in efficacy of the combination is then determined by comparing the observed response of the combination to the expected (or predicted) response as calculated from the observed response of each individual component alone. If the observed response of the combination is greater than the expected (or predicted) response, or stated conversely, if the difference between the observed and expected response is greater than zero, then the combination is said to be synergistic or unexpectedly effective (Colby, S. R., Weeds, 1967(15), p. 20-22). The Colby method requires only a single dose of each herbicide applied alone and the mixture of both doses. The formula used to calculate the expected efficacy (EE) which was compared with the observed efficacy (OE) to determine the efficacy of the present disclosure is explained hereinbelow: […]

CP(=O)(O)CC[C@H](N)C(=O)O.N [L-glufosinate ammonium]
Observed efficacy (%) of L-glufosinate ammonium (150 g a.i./ha) (Example 1): 95%
Observed efficacy (%) of L-glufosinate ammonium (150 g a.i./ha) (Example 2): 95%
Observed efficacy (%) of L-glufosinate ammonium (150 g a.i./ha) (Example 3): 95%

CCc1cccc(C)c1N(COC(C)C)C(=O)CCl [Propisochlor]
Observed efficacy (%) of Propisochlor (540 g a.i./ha): 5%

Cc1ccc2c(c1)[C@H](Nc1nc(N)nc(C(C)F)n1)[C@@H](C)C2 (stereo partly drawn) [Indaziflam]
Observed efficacy (%) of Indaziflam (50 g a.i./ha): 90%

Cn1nc(C(F)(F)F)c(CS(=O)(=O)C2=NOC(C)(C)C2)c1OC(F)F [pyroxasulfone, Pyroxasulfone]
Observed efficacy (%) of pyroxasulfone (75 g a.i./ha): 5%
